# Measurements reported in patent publication US3985740A, “7-[D-(α-amino-α-phenyl-, 2-thienyl- and 3-thienylacetamido)]-3-(5-methylthiazol-2-yl)carbonylthiomethyl-3-cephem -4-carboxylic acids” (Bristol-Myers Company, priority 1974, dated 1976).
# Read-outs that look alike come from different tables or passages of the source.
# What was measured:
# S. aureus Smith A9537 = assay: M.I.C. by tube dilution; type: cell-based; conditions: Staphylococcus aureus, overnight 37° C., read-out: M.I.C.
# E. coli A9675 = assay: M.I.C. by tube dilution; type: cell-based; conditions: Escherichia coli, A9675; at 10^-^4 dilution; overnight 37° C.; read-out: M.I.C.
# K. pneumoniae A15130 = assay: M.I.C. by tube dilution; type: cell-based; conditions: Klebsiella pneumoniae, A15130; at 10^-^4 dilution; overnight 37° C.; read-out: M.I.C.
# Str. pyogenes A9604 = assay: M.I.C. by tube dilution; type: cell-based; conditions: Streptococcus pyogenes, Str. pyogenes + 5% serum, 50% Nutrient Broth - 45% Antibiotic Assay Broth, overnight 37° C.
# Pr. mirabilis A9900 = assay: M.I.C. by tube dilution; type: cell-based; conditions: Proteus mirabilis, A9900; at 10^-^4 dilution; overnight 37° C.; read-out: M.I.C.
# [1] = test system: S. aureus methicillin-resistant A15097; assay: M.I.C. by tube dilution; type: cell-based; conditions: Staphylococcus aureus, at 10^-^3 dilution, overnight 37° C.
# Sal. enteritidis A9531 = assay: M.I.C. by tube dilution; type: cell-based; conditions: Salmonella enterica, ENTERITIDIS; at 10^-^4 dilution; overnight 37° C.; read-out: M.I.C.
# Ps. aeruginosa A9843A = assay: M.I.C. by tube dilution; type: cell-based; conditions: Pseudomonas aeruginosa
# S. aureus A9748 = assay: M.I.C. by tube dilution; type: cell-based; conditions: Staphylococcus aureus, overnight 37° C., read-out: M.I.C.
# Pr. morganii A15153 = assay: M.I.C. by tube dilution; type: cell-based; conditions: Morganella morganii, at 10^-^4 dilution, overnight 37° C., read-out: M.I.C.
# [2] = test system: certain important pathogenic organisms; assay: In vitro activity in the primary screening tests (overall); type: cell-based; conditions: in words
# Source text: This combination of good oral absorption and high antibacterial activity in a cephalosporin while highly desirable is quite uncommon in compounds reported to date. […] To illustrate the unpredictability of oral absorption and antibacterial activity in a closely related series of cephalosporin compounds, Tables 1-8 below compare in vitro activities and oral absorption as tested in the mouse of the compounds of the formula ##SPC12##
# K. pneumoniae A9977 = assay: M.I.C. by tube dilution; type: cell-based; conditions: Klebsiella pneumoniae, A9977; at 10^-^4 dilution; overnight 37° C.; read-out: M.I.C.
# D. pneumoniae A9585 = assay: M.I.C. by tube dilution; type: cell-based; conditions: Streptococcus pneumoniae, D. pneumoniae + 5% serum, 50% Nutrient Broth - 45% Antibiotic Assay Broth, overnight 37° C.
# E. coli Juhl A15119 = assay: M.I.C. by tube dilution; type: cell-based; conditions: Escherichia coli, JUHLA15119
# [3] = Blood levels in the mouse after oral administration; type: in vivo
# Description: Blood levels in the mouse after oral administration were
# determined with the following results:
# Ser. marcescens A20019 = assay: M.I.C. by tube dilution; type: cell-based; conditions: Serratia marcescens
# [4] = test system: S. aureus BX 1633-2 A9606; assay: M.I.C. by tube dilution; type: cell-based; conditions: Staphylococcus aureus, overnight 37° C., read-out: M.I.C.
smiles,measurement,setting,value
"Cc1cnc(C(=O)SCC2=C(C(=O)O)N3C(=O)C(NC(=O)[C@H](N)c4ccccc4)[C@H]3SC2)s1 (stereo partly drawn) [Compound 586, 7-[D-(-)-α-Aminophenylacetamido]-3-(5-methylthiazol-2-yl)carbonylthiomethyl-3-cephem-4-carboxylic acid]",MIC,"S. aureus Smith A9537; SMITHA9537, + 50% serum, at 10^-^4 dilution",> 63 µg/mL
same,MIC,"S. aureus Smith A9537; SMITHA9537, at 10^-^4 dilution",0.3 µg/mL
same,MIC,E. coli A9675,4 µg/mL
same,MIC,K. pneumoniae A15130,32 µg/mL
same,MIC,Str. pyogenes A9604,0.3 µg/mL
same,MIC,Pr. mirabilis A9900,16 µg/mL
same,MIC,[1],4 µg/mL
same,MIC,Sal. enteritidis A9531,0.3 µg/mL
same,MIC,Ps. aeruginosa A9843A,> 125 µg/mL
same,MIC,"S. aureus A9748; A9748, at 10^-^2 dilution",63 µg/mL
same,MIC,"S. aureus A9748; A9748, at 10^-^3 dilution",8 µg/mL
same,MIC,Pr. morganii A15153,63 µg/mL
same,activity relative to cephalexin,[2],excellent activity relative to cephalexin
same,MIC,K. pneumoniae A9977,4 µg/mL
same,MIC,D. pneumoniae A9585,0.16 µg/mL
same,MIC,E. coli Juhl A15119,2 µg/mL
same,concentration at 0.5 h,"[3]; blood, 100 mg/kg, mouse, oral, 100 mgm./kg., 0.5 hrs. after administration, read-out: Blood Level",34800 ng/mL
same,concentration at 1 h,"[3]; blood, 100 mg/kg, mouse, oral, 100 mgm./kg., 1 hr. after administration, read-out: Blood Level",30700 ng/mL
same,concentration at 2 h,"[3]; blood, 100 mg/kg, mouse, oral, 100 mgm./kg., 2 hrs. after administration, read-out: Blood Level",13000 ng/mL
same,concentration at 3.5 h,"[3]; blood, 100 mg/kg, mouse, oral, 100 mgm./kg., 3.5 hrs. after administration, read-out: Blood Level",7000 ng/mL
same,oral absorption,[3]; in words,good oral absorption properties
same,Blood Level,"[3]; mouse, oral, 100 mgm./kg., 0.5 hrs. after administration",34800 ng/mL
same,MIC,Ser. marcescens A20019,> 125 µg/mL
same,MIC,"[4]; BX16332A9606, at 10^-^2 dilution",4 µg/mL
same,MIC,"[4]; BX16332A9606, at 10^-^3 dilution",0.6 µg/mL
